Results reported in PubChem BioAssay (NCI).
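Five concentrations, 48 hours, 96-well plates. GI50 is the concentration that inhibits growth by half. TGI: concentration producing complete growth inhibition.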

Legend:
Test in all cases: DTP human tumour cell line panel, 48 h
[1] = tested on: 786-0 renal
[2] = tested on: A498 renal
[3] = tested on: A549 NSCLC
[4] = tested on: ACHN renal
[5] = tested on: BT-549 breast
[6] = tested on: CCRF-CEM leukemia
[7] = tested on: COLO 205 colon
[8] = tested on: DU-145 prostate
[9] = tested on: EKVX NSCLC
[10] = tested on: HCC-2998 colon
[11] = tested on: HCT-116 colon
[12] = tested on: HCT-15 colon
[13] = tested on: HL-60(TB) leukemia
[14] = tested on: HOP-62 NSCLC
[15] = tested on: HOP-92 NSCLC
[16] = tested on: HS 578T breast
[17] = tested on: HT29 colon
[18] = tested on: IGROV1 ovarian
[19] = tested on: KM12 colon
[20] = tested on: LOX IMVI melanoma
[21] = tested on: M14 melanoma
[22] = tested on: MALME-3M melanoma
[23] = tested on: MCF7 breast
[24] = tested on: MDA-MB-231 breast
[25] = tested on: MDA-MB-435
[26] = tested on: MOLT-4 leukemia
[27] = tested on: NCI-H226 lung
[28] = tested on: NCI-H23 lung
[29] = tested on: NCI-H460 lung
[30] = tested on: NCI-H522 lung
[31] = tested on: NCI/ADR-RES ovarian
[32] = tested on: OVCAR-3 ovarian
[33] = tested on: OVCAR-4 ovarian
[34] = tested on: OVCAR-5 ovarian
[35] = tested on: OVCAR-8 ovarian
[36] = tested on: PC-3 prostate
[37] = tested on: RPMI-8226 leukemia
[38] = tested on: RXF 393 renal
[39] = tested on: SF-268 CNS
[40] = tested on: SF-295 CNS
[41] = tested on: SF-539 CNS
[42] = tested on: SK-MEL-2 melanoma
[43] = tested on: SK-MEL-28 melanoma
[44] = tested on: SK-MEL-5 melanoma
[45] = tested on: SK-OV-3 ovarian
[46] = tested on: SN12C renal
[47] = tested on: SNB-19 CNS
[48] = tested on: SNB-75 CNS
[49] = tested on: SR leukemia
[50] = tested on: SW-620 colon
[51] = tested on: T-47D breast
[52] = tested on: TK-10 renal
[53] = tested on: U251 CNS
[54] = tested on: UACC-257 melanoma
[55] = tested on: UACC-62 melanoma
[56] = tested on: UO-31 renal

## CN1C[C@@H](c2ccc(Cl)cc2)[C@]2(NC(=S)N(c3ccc(F)c(Cl)c3)C2=O)[C@@]12C(=O)NC1C=CC(Cl)=C[C@H]12 (some centres not stated)
[1]
  GI50: 2.08 µM
  TGI: 4.82 µM
[2]
  GI50: 2.74 µM
  TGI: 10.1 µM
[3]
  GI50: 3.34 µM
  TGI: 12.3 µM
[4]
  GI50: 3.07 µM
  TGI: 10.6 µM
[5]
  GI50: 4.62 µM
  TGI: 17.1 µM
[6]
  GI50: 4.13 µM
  TGI: 18.6 µM
[7]
  GI50: 1.75 µM
  TGI: 3.46 µM
[8]
  GI50: 3.35 µM
  TGI: 12.6 µM
[9]
  GI50: 2.72 µM
  TGI: 20.3 µM
[10]
  GI50: 3.85 µM
  TGI: 13.8 µM
[11]
  GI50: 3.12 µM
  TGI: 10.2 µM
[12]
  GI50: 3 µM
  TGI: 10.3 µM
[13]
  GI50: 2.48 µM
  TGI: 6.02 µM
[14]
  GI50: 3.14 µM
  TGI: 12.7 µM
[15]
  GI50: 2.49 µM
  TGI: 7.13 µM
[16]
  GI50: 2.96 µM
  TGI: 16.7 µM
[17]
  GI50: 2.1 µM
  TGI: 4.24 µM
[18]
  GI50: 3.12 µM
  TGI: 14.6 µM
[19]
  GI50: 2 µM
  TGI: 4.92 µM
[20]
  GI50: 1.7 µM
  TGI: 3.33 µM
[21]
  GI50: 2.95 µM
  TGI: 10.6 µM
[22]
  GI50: 2.81 µM
  TGI: 9.09 µM
[23]
  GI50: 2.82 µM
  TGI: 12 µM
[24]
  GI50: 1.88 µM
  TGI: 4.27 µM
[25]
  GI50: 3.02 µM
  TGI: 11.2 µM
[26]
  GI50: 2.87 µM
  TGI: 14.6 µM
[27]
  GI50: 1.82 µM
  TGI: 4.72 µM
[28]
  GI50: 2.66 µM
  TGI: 10.1 µM
[29]
  GI50: 2.44 µM
  TGI: 6.09 µM
[30]
  GI50: 2.84 µM
  TGI: 10.9 µM
[31]
  GI50: 2.54 µM
  TGI: 8.97 µM
[32]
  GI50: 2.12 µM
  TGI: 4.75 µM
[33]
  GI50: 3.75 µM
  TGI: 18.6 µM
[34]
  GI50: 2.36 µM
  TGI: 6.14 µM
[35]
  GI50: 2.78 µM
  TGI: 8.6 µM
[36]
  GI50: 2.25 µM
  TGI: 6.42 µM
[37]
  GI50: 2.72 µM
  TGI: 7.06 µM
[38]
  GI50: 1.88 µM
  TGI: 3.73 µM
[39]
  GI50: 2.89 µM
  TGI: 11.2 µM
[40]
  GI50: 1.89 µM
  TGI: 4.46 µM
[41]
  GI50: 3.29 µM
  TGI: 12.2 µM
[42]
  GI50: 3.08 µM
  TGI: 10.3 µM
[43]
  GI50: 3.61 µM
  TGI: 12.9 µM
[44]
  GI50: 1.97 µM
  TGI: 4.21 µM
[45]
  GI50: 3.09 µM
  TGI: 10.4 µM
[46]
  GI50: 1.86 µM
  TGI: 3.74 µM
[47]
  GI50: 3.17 µM
  TGI: 14.4 µM
[48]
  GI50: 1.87 µM
  TGI: 9.92 µM
[49]
  GI50: 2.79 µM
  TGI: 7.18 µM
[50]
  GI50: 3.19 µM
  TGI: 13.1 µM
[51]
  GI50: 2.85 µM
  TGI: 13.6 µM
[52]
  GI50: 3.48 µM
  TGI: 8.06 µM
[53]
  GI50: 2.01 µM
  TGI: 4.71 µM
[54]
  GI50: 3.48 µM
  TGI: 14.1 µM
[55]
  GI50: 3.11 µM
  TGI: 12.3 µM
[56]
  GI50: 1.6 µM
  TGI: 3.86 µM
